Laboratory results: US20160332972A1, “UREA HYDANTOIN DERIVATIVES AS FORMYL PEPTIDE MODULATORS” (ALLERGAN, INC., priority 2014, published 2016)

Molecular target: T1, FPR2 (Homo sapiens, UniProt P25090)
T1 construct: expressed in transfected cells
T1 sequence (P25090 1-351): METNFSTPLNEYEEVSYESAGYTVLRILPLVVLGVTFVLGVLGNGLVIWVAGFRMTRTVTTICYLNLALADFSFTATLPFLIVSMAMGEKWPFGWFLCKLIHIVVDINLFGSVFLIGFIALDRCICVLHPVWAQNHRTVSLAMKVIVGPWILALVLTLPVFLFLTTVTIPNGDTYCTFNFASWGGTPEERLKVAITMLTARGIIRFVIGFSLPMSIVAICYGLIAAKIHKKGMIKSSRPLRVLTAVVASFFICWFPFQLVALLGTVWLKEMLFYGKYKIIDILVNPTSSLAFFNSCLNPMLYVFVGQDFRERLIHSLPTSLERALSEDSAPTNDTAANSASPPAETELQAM
Assay: FLIPR Tetra calcium activity assay in CHO-Gα16 cells stably expressing FPR2
Assay type: cell-based
Method: CHO-Gα16 cells stably expressing FPR2 were cultured in F12 media (10% FBS, 1% PSA, 400 μg/ml geneticin and 50 μg/ml hygromycin). In general, the day before the experiment, 18,000 cells/well were plated in a 384-well clear bottom poly-D-lysine coated plate. The following day the screening compound-induced calcium activity was assayed on a FLIPR^Tetra. The drug plates were prepared in 384-well microplates using EP3 and MultiPROBE robotic liquid handling systems. Compounds were tested at concentrations ranging from 0.61 to 10,000 nM. Results are expressed as EC50 (nM) and % efficacy values.

CCOC(=O)CCNCCC1(CC)NC(=O)N(NC(=O)Nc2ccc(Br)cc2)C1=O (centres unmarked) [Compound 1, Ethyl 3-{[2-(1-{[(4-Bromophenyl)carbamoyl]amino}-4-ethyl-2,5-dioxoimidazolidin-4-yl)ethyl]amino}propanoate]
FPR2 Gα16-CHO (% eff) (% efficacy, calcium activity): (0.97) % | EC50 (compound-induced calcium activity, tested at 0.61 to 10,000 nM): 49 nM
